“Also recorded” adds a separate entry of the source.
Legend:
[1] = tested on: HIV-1; settings: Neidrig et al 1994; cited from earlier work
[2] = tested on: HIV-1IIIB virus; test: Peptide inhibition experiment, C8166 culture; assay type: cell-based; settings: peptide 200 mg/ml, RT activity in supernatant
Method: (§1) A series of overlapping p17 derived 1 5mer peptides were used. The peptides were dissolved in phosphate-buffered saline pH 7.0 and used at a final concentration of 200 mg/ml. For each peptide, 2×10^5 U937 cells were pelleted and resuspended in […] media containing […] of a stock of HIV-1IIIB virus (giving a multiplicity of infection of 0.25) and 200 mg/ml of the appropriate peptide. Following incubation for two days, the cells were pelleted and resuspended in fresh media containing peptide. After a further three days incubation, […] of the culture was removed and added to 1×10^5 C8166 cells in a total volume of […] with the appropriate peptide. Samples of both the U937 and C8166 culture supernatants were taken after a further two and three days incubation and assayed for RT activity. In addition, the C8166 cells were visually inspected for the appearance of syncytia on day three.

[3] = tested on: HIV-1IIIB virus; test: Peptide inhibition experiment, U937 culture; assay type: cell-based; settings: peptide 200 mg/ml, RT activity in supernatant
Method: as §1

Substance	inhibitory activity of peptide in previous studies [1]	RT titer, C8166 day 2 ([2]; day 2)	RT titer, C8166 day 3 ([2]; day 3)	RT titer, U937 day 7 ([3]; day 7)	RT titer, U937 day 8 ([3]; day 8)
23 to 46: p17 peptide spanning residues 23 to 46 of previous studies (Neidrig et al 1994) (GGKKKYKLKHIVWASRELERFAVN; Matrix protein p17; UniProt P04591 24-47, looked up, fragment)	no inhibitory activity; also recorded: no inhibitory effect				
47 to 59: inhibitory p17 peptide spanning residues 47 to 59 of previous studies (Neidrig et al 1994) (PGLLETSEGCRQI; Matrix protein p17; UniProt P04591 48-60, looked up, fragment)	inhibitory				
51-65: p17-derived 15mer peptide, corresponding p17 residues 51-65 (ETSEGCRQILGQLQP; Matrix protein p17; UniProt P04591 52-66, looked up, fragment) [Mutant 51-65]		19.9 × 10^3 cpm/ml	33.6 × 10^3 cpm/ml	14.8 × 10^3 cpm/ml	47.0 × 10^3 cpm/ml
